Results taken from patent US20250034108A1, “SODIUM CHANNEL BLOCKERS” (NOVARTIS AG, priority 2023, published 2025).

Assays:
Assay type in all cases: cell-based
human Nav1.5 [1] = target: T1, human Nav1.5 (Homo sapiens (Human), UniProt Q14524); test: Qpatch automated patch-clamp, peak Nav1.5 current inhibition, 5-Hz AF-like assay (holding potential -85 mV); conditions: CHO-K1 cells stably expressing human Nav1.5, holding potential -85 mV, Table 5, read-out: Nav1.5 IC50 (5 Hz, AF Rate)
Excerpt: (§1) Electrophysiology was used to measure the ionic currents in isolated living cells using automated patch-clamp recording, performed using an automated patch-clamp machine called Qpatch (Sophion Bioscience). Two different assay conditions were used to identify compounds with atrial-selective potential. The 5-Hz AF-like assay has more depolarized holding potential at −85 mV to mimic atrial resting membrane potential (RMP) and was used to identify compounds of strong rate-dependence. Active, rate-dependent compounds were then screened at 1 Hz (i.e., sinus rate) at the holding potential of −100 mV to mimic the ventricular scenario and help identify compounds with the largest potency separation or attenuation from the 5-Hz AF-like assay. Such compounds have the potential for treating AF without the QRS liability inherent to Class Ic drugs.
(§2) The sodium current conducted through a cell (via Nav1.5) or electrical signals were processed through a low-pass filter at 5 KHz, re-digitalized and acquired at 20 kHz. Series resistance was not compensated and leak subtraction was performed.
(§3) 1 to 3 million Chinese Hamster Ovary cells (also known as CHO-K1) stably expressing human Nav1.5 were seeded into […] culture flasks with 25 mL medium (consisting of Gibco Dulbecco's Modified Eagle Medium as a base medium with 1% MEM non-essential amino acids, 400 μg/mL Geneticin, 5 μg/mL puromycin and 10% fetal bovine serum) 48-72 hours prior to the experiments. On the day of the experiment, cells were washed once with phosphate-buffered saline (also known as PBS; Gibco) detached with Detachin™ (Genlantis), and re-suspended in CHO—S-SFM II media (Gibco) at 200,000 cells/mL. The CHO—S-SFM II was replaced with assay solutions prior to the assays. Whole-cell currents were recorded at room temperature in the whole-cell configuration. The external aqueous assay solution (pH=7.4; Osm=307-315) contained the following (the concentration for each component is expressed in parentheses in mM): NaCl (140 mM), KCl (4 mM), CaCl2) (2 mM), MgCl2 (1 mM), 4-(2-hydroxyethyl)-1-piperazineethanesulfonic acid, also known as HEPES (10 mM), and glucose (5 mM). The internal aqueous assay solution (pH=7.2; Osm=292-295) contained the following (the concentration for each component is expressed in parentheses in mM): CsF (110 mM), CsCl (10 mM), NaCl (10 mM), HEPES (10 mM), and ethylene glycolbis(β-aminoethyl ether)-N,N,N′,N′-tetraacetic acid, also known as EGTA (10 mM).
To assess peak Nav1.5 current inhibition in an atrial fibrillation-mimicking condition (Nav1.5 IC50 (5 Hz, AF-like rate) (μM)), compounds were first prepared at 10 mM in DMSO, and cells were pre-incubated with test compounds at each concentration for 3 min. in an ascending order of 0, 0.37, 1.1, 3.3, 10 and 30 μM. An atrial action potential-like protocol consisting of a voltage ramp (+10 mV to −85 mV for a 150 ms duration and a holding potential at −85 mV) was then applied to cells at 5 Hz for 12 s until no further current change or inhibition was observed. The percent inhibition (expressed as ([Iafter compound treatment/Ibefore compound treatment]×100%) is calculated by normalizing the peak current amplitude at the last pulse of each of the 6 compound concentrations by the amplitude before exposure to the test compound. The compiled data was further normalized by vehicle control (DMSO) to account for Nav1.5 current run-down, and IC50 was calculated by Matlab (MathWorks, USA).

human Nav1.5 [2] = target: T1, human Nav1.5; test: Qpatch automated patch-clamp, peak Nav1.5 current inhibition, 1 Hz sinus rate, ventricular condition (holding potential -100 mV); conditions: CHO-K1 cells stably expressing human Nav1.5, without ATX-II
Excerpt: as §1, §2, §3
(§4) To assess peak Nav1.5 current inhibition mimicking a ventricular condition at sinus rate with or without ATX-II (Nav1.5 IC50 (1 Hz, ATXII) (μM) or (1 Hz, Sinus Rate) (μM)), compounds were first prepared at 10 mM in DMSO, and cells were pre-incubated with test compounds at each concentration for 3 min. in an ascending order of 0, 0.37, 1.1, 3.3, 10 and 30 uM. In the assay with ATX-II (Alomone Labs), 50 nM ATX-II was included during the 3-min. compound incubation. A square pulse (−10 mV; 400 ms and a holding potential at −100 mV) was run at 1 Hz for 25 s until no further inhibition or Nav1.5 current change was observed. The percent inhibition (expressed as ([Iafter compound treatment/Ibefore compound treatment]×100%) is calculated by normalizing the peak current amplitude at the last pulse of each of the 6 compound concentrations by the amplitude before exposure to the test compound. The compiled data was further normalized by vehicle control (DMSO) to account for Nav1.5 current run-down, and IC50 was calculated by Matlab (MathWorks, USA).

human Nav1.5 [3] = target: T1, human Nav1.5; test: Qpatch automated patch-clamp, peak Nav1.5 current inhibition, 1 Hz with 50 nM ATX-II (holding potential -100 mV); conditions: CHO-K1 cells stably expressing human Nav1.5, read-out: Nav1.5 IC50 (1 Hz, ATXII)
Excerpt: as §1, §2, §3, §4

T1 sequence (Q14524 whole entry): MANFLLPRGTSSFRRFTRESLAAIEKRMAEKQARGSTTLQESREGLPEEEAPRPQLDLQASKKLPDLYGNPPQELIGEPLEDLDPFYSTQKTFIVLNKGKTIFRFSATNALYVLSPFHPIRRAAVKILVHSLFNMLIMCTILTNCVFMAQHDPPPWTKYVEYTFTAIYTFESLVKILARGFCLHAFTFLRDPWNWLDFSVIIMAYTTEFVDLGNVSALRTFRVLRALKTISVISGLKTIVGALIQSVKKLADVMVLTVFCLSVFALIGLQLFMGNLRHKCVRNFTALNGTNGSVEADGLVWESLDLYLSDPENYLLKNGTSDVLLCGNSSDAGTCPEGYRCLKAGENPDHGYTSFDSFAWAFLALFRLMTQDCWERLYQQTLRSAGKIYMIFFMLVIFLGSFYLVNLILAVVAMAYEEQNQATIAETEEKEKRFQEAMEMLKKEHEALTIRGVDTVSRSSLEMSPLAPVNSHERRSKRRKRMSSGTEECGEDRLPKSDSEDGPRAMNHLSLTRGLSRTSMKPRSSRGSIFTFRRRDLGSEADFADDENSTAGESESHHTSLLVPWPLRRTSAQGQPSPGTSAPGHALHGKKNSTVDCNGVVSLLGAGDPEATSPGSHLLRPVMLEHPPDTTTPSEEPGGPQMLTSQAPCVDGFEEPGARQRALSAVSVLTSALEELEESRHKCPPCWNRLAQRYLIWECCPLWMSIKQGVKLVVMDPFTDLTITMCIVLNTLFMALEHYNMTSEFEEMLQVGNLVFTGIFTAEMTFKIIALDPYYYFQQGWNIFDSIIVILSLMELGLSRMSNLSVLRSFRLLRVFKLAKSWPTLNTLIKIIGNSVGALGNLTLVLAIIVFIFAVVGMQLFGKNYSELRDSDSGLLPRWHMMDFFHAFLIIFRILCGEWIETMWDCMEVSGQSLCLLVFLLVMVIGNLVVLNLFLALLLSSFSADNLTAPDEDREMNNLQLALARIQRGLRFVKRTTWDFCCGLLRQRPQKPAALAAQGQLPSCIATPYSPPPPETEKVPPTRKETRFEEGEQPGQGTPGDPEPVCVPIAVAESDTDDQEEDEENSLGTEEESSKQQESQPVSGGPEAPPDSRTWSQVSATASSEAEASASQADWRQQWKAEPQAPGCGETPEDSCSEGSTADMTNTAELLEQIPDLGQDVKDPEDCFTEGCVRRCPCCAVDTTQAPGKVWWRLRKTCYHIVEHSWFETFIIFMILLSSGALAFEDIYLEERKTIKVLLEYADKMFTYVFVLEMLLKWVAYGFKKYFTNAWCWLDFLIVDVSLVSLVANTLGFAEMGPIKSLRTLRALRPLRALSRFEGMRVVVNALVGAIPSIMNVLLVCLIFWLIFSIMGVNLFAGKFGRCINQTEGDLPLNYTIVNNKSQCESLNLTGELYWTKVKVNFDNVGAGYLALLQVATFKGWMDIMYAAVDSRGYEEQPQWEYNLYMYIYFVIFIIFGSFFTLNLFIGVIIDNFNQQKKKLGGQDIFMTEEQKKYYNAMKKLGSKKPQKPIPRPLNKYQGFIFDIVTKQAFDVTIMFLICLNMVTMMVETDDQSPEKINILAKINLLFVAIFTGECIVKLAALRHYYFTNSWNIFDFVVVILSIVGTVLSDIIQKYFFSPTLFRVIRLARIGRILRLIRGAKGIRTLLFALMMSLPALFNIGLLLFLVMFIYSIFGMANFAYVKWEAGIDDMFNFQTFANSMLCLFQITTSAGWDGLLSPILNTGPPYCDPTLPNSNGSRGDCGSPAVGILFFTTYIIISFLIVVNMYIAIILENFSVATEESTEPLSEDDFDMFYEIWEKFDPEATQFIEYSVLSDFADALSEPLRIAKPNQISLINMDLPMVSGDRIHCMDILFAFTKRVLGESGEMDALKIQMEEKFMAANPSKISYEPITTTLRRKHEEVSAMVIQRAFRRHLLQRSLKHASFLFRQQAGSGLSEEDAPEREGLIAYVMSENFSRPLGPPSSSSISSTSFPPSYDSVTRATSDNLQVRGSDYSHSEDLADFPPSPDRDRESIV

Compound	IC50 (human Nav1.5 [1]) [µM]	IC50 (human Nav1.5 [2]) [µM]	IC50 (human Nav1.5 [3]) [µM]
CC(O)(CS(N)(=O)=O)c1cccc(-c2nnn(Cc3c(F)ccc4c3OC(F)(F)O4)n2)n1 (single isomer, unassigned) [Example 3, (R or S)-2-hydroxy-2-(6-(2-((2,2,5-trifluorobenzo[d][1,3]dioxol-4-yl)methyl)-2H-tetrazol-5-yl)pyridin-2-yl)propane-1-sulfonamide]	7.5	> 30	–
CC(O)(CS(N)(=O)=O)c1cccc(-c2nnn(Cc3c(F)ccc4c3OC(F)(F)O4)n2)n1 (single isomer, unassigned) [Example 4, (R or S)-2-hydroxy-2-(6-(2-((2,2,5-trifluorobenzo[d][1,3]dioxol-4-yl)methyl)-2H-tetrazol-5-yl)pyridin-2-yl)propane-1-sulfonamide]	6.7	> 30	–
CC(O)(CS(N)(=O)=O)c1cc(-c2nnn(Cc3cc(OC(F)(F)F)ccc3F)n2)ccc1F (single isomer, unassigned) [Example 5, (R or S)-2-(2-fluoro-5-(2-(2-fluoro-5-(trifluoromethoxy)benzyl)-2H-tetrazol-5-yl)phenyl)-2-hydroxypropane-1-sulfonamide]	7.9	> 30	–
CC(O)(CS(N)(=O)=O)c1cc(-c2nnn(Cc3cc(OC(F)(F)F)ccc3F)n2)ccc1F (single isomer, unassigned) [Example 6, (R or S)-2-(2-fluoro-5-(2-(2-fluoro-5-(trifluoromethoxy)benzyl)-2H-tetrazol-5-yl)phenyl)-2-hydroxypropane-1-sulfonamide]	7.9	> 30	–
CC(c1cccc(-c2nnn(Cc3cc(OC(F)(F)F)ccc3F)n2)n1)C(CO)S(N)(=O)=O (single isomer, unassigned) [Example 31, (2R or 2S, 3R or 3S)-3-(6-(2-(2-fluoro-5-(trifluoromethoxy)benzyl)-2H-tetrazol-5-yl)pyridin-2-yl)-1-hydroxybutane-2-sulfonamide]	1.1	7.8	–
CC(c1cccc(-c2nnn(Cc3cc(OC(F)(F)F)ccc3F)n2)n1)C(CO)S(N)(=O)=O (single isomer, unassigned) [Example 32, (2R or 2S,3R or 3S)-3-(6-(2-(2-fluoro-5-(trifluoromethoxy)benzyl)-2H-tetrazol-5-yl)pyridin-2-yl)-1-hydroxybutane-2-sulfonamide]	2.7	28	–
CC(c1cccc(-c2nnn(Cc3cc(OC(F)(F)F)ccc3F)n2)n1)C(CO)S(N)(=O)=O (single isomer, unassigned) [Example 33, (2R or 2S,3R or 3S)-3-(6-(2-(2-fluoro-5-(trifluoromethoxy)benzyl)-2H-tetrazol-5-yl)pyridin-2-yl)-1-hydroxybutane-2-sulfonamide]	1.3	6.7	–
CC(c1cccc(-c2nnn(Cc3cc(OC(F)(F)F)ccc3F)n2)n1)C(CO)S(N)(=O)=O (single isomer, unassigned) [Example 34, (2R or 2S, 3R or 3S)-3-(6-(2-(2-fluoro-5-(trifluoromethoxy)benzyl)-2H-tetrazol-5-yl)pyridin-2-yl)-1-hydroxybutane-2-sulfonamide]	2.2	> 30	–
CC(O)(CS(N)(=O)=O)c1cccc(-c2nc(Cc3cc(OC(F)(F)F)ccc3F)no2)n1 (single isomer, unassigned) [Example 58, (R or S)-2-(6-(3-(2-fluoro-5-(trifluoromethoxy)benzyl)-1,2,4-oxadiazol-5-yl)pyridin-2-yl)-2-hydroxypropane-1-sulfonamide]	5	–	> 30
CC(O)(CS(N)(=O)=O)c1cccc(-c2cn(Cc3cc(OC(F)(F)F)ccc3F)nn2)n1 (single isomer, unassigned) [Example 59, (R or S)-2-(6-(1-(2-fluoro-5-(trifluoromethoxy)benzyl)-1H-1,2,3-triazol-4-yl)pyridin-2-yl)-2-hydroxypropane-1-sulfonamide]	3.4	–	8.6
CC(O)(CS(N)(=O)=O)c1cccc(-c2cn(Cc3cc(OC(F)(F)F)ccc3F)nn2)n1 (single isomer, unassigned) [Example 60, (R or S)-2-(6-(1-(2-fluoro-5-(trifluoromethoxy)benzyl)-1H-1,2,3-triazol-4-yl)pyridin-2-yl)-2-hydroxypropane-1-sulfonamide]	7	–	16
CC(O)(CS(N)(=O)=O)c1cccc(-c2cnn(Cc3cc(OC(F)(F)F)ccc3F)n2)n1 (single isomer, unassigned) [Example 61, (R or S)-2-(6-(2-(2-fluoro-5-(trifluoromethoxy)benzyl)-2H-1,2,3-triazol-4-yl)pyridin-2-yl)-2-hydroxypropane-1-sulfonamide]	5	–	> 30
CC(O)(CS(N)(=O)=O)c1cccc(-c2nnn(Cc3cc(OC(F)(F)F)ccc3F)n2)c1 (single isomer, unassigned) [Rac-25 + 26, (R or S)-2-(3-(2-(2-fluoro-5-(trifluoromethoxy)benzyl)-2H-tetrazol-5-yl)phenyl)-2-hydroxypropane-1-sulfonamide]	2.2	–	> 30
CC(O)(CS(N)(=O)=O)c1cccc(-c2nnn(Cc3cc(OCC(F)(F)F)ccc3F)n2)n1 (single isomer, unassigned) [Rac-29+30, (R or S)-2-(6-(2-(2-fluoro-5-(2,2,2-trifluoroethoxy)benzyl)-2H-tetrazol-5-yl)pyridin-2-yl)-2-hydroxypropane-1-sulfonamide]	2.5	–	3
CC(O)(CS(N)(=O)=O)c1cccc(-c2ccn(Cc3cc(OC(F)(F)F)ccc3F)n2)n1 (single isomer, unassigned) [Rac-37 + 38, (R or S)-2-(6-(1-(2-fluoro-5-(trifluoromethoxy)benzyl)-1H-pyrazol-3-yl)pyridin-2-yl)-2-hydroxypropane-1-sulfonamide]	2.3	–	> 30
CC(O)(CS(N)(=O)=O)c1cccc(-c2cn(Cc3cc(OC(F)(F)F)ccc3F)nn2)n1 (single isomer, unassigned) [Rac-59 + 60, (R or S)-2-(6-(1-(2-fluoro-5-(trifluoromethoxy)benzyl)-1H-1,2,3-triazol-4-yl)pyridin-2-yl)-2-hydroxypropane-1-sulfonamide]	5.2	–	15
C[C@@](O)(CS(N)(=O)=O)c1cccc(-c2nnn(Cc3cc(OC(F)(F)F)ccc3F)n2)n1 [Example 2, (S)-2-(6-(2-(2-fluoro-5-(trifluoromethoxy)benzyl)-2H-tetrazol-5-yl)pyridin-2-yl)-2-hydroxypropane-1-sulfonamide]	4.7	–	> 30
